Article PMC10541190 (The Journal of Clinical Investigation, 2023)
Several values for one entry are separate records, joined by “and”; a condition that tells them apart may be missing. Equal entries are not always repeated. Where two headings read alike, the source gives them in different places.

How the values were obtained:
[1] = tested on: SARS-CoV-2 (Belgium-GHB-03021); type: cell-based
rVSV-SARS-CoV-2-S = experiment: microbe, parasite or virus in culture; type: cell-based
[2] = tested on: SARS-CoV-2 (USA-WA1/2020); experiment: microbe, parasite or virus in culture; type: cell-based; settings: Severe acute respiratory syndrome coronavirus 2, read-out: EC50, viral replication by plaque assay
MARV (Ci67 strain) = experiment: organism not typed; type: cell-based; settings: Huh-7, read-out: EC50, MARV replication
[3] = tested on: TNF-α, IL-1β, IL-6, MCP-1; type: cell-based, human
[4] = tested on: IL-2, IL-12p70, IL-13, IL-6, IFN-γ, IL-10; type: cell-based, human
VEEV (TC-83) = settings: mouse, in vivo
MAP2K5 = settings: cited from earlier work

For `CS(=O)(=O)CCNCc1ccc(-c2ccc3ncnc(Nc4ccc(OCc5cccc(F)c5)c(Cl)c4)c3c2)o1` [Lapatinib], the “rescue of Vero-eGFP cells from SARS-CoV-2-induced lethality, dose response” value [1] was “dose-dependent rescue”, the EC50 (rVSV-SARS-CoV-2-S; Severe acute respiratory syndrome coronavirus 2, Calu-3, read-out: EC50, rVSV-SARS-CoV-2-S infection) was 2.6 to 3.2 µM and the EC50 (rVSV-SARS-CoV-2-S; read-out: EC50, rVSV-SARS-CoV-2-S infection) was 2.6 µM. For the same molecule, the EC50 [2] was 0.4 µM, the EC50 (MARV (Ci67 strain)) was 2 µM and the “IL-6 concentration in ALOs' supernatants” value [3] was 6.30 pg/mL and 5.01 pg/mL and 5.83 pg/mL and 5.58 pg/mL and 5.85 pg/mL and 5.34 pg/mL and 4.40 pg/mL and 3.70 pg/mL. The “MCP-1 concentration in ALOs' supernatants” value [3] was 39.85 pg/mL and 40.23 pg/mL and 32.64 pg/mL and 29.59 pg/mL and 33.59 pg/mL and 31.32 pg/mL and 47.61 pg/mL and 36.68 pg/mL, the “concentration achieving cytokine levels at or lower than in uninfected monolayers” value [3] was 0.5 µM and the “expression level of MCP-1” value [3] was “increased”. For the same molecule, the “expression level of TNF-α, IL-1β and IL-6” value [3] was “dose-dependently reduced”, the IFN-γ concentration [4] was 26.79 pg/mL and 38.39 pg/mL and the IL-1β concentration [4] was 11.89 pg/mL and 16.34 pg/mL. For the same molecule, the IL-2 concentration [4] was 11.13 pg/mL and 12.03 pg/mL, the IL-4 concentration [4] was 7.10 pg/mL and 9.18 pg/mL and the IL-6 concentration [4] was 1072.19 pg/mL and 1729.84 pg/mL. For the same molecule, the IL-8 concentration [4] was 2235.87 pg/mL and 2263.16 pg/mL, the IL-10 concentration [4] was 8.47 pg/mL and 10.43 pg/mL and the IL-12p70 concentration [4] was 18.48 pg/mL and 18.83 pg/mL. The IL-13 concentration [4] was 9.88 pg/mL and 8.83 pg/mL, the TNF-α concentration [4] was 22.84 pg/mL and 21.83 pg/mL and the “production of IL-2, IL-12p70, IL-13 and IL-6” value [4] was “reduced the production”. The mice protected (VEEV (TC-83)) was 60%, the “mice protected by day 10” value (VEEV (TC-83)) was 80% and the “mice protected by day 14” value (VEEV (TC-83)) was 40%. The “toxicity of the dose in the VEEV model” value (VEEV (TC-83)) was “nontoxic” and the “Other targets: MAP2K5 (% of control)” value (MAP2K5) was “RAF1 (0%), STK10 (1.4%), RIPK2 (6.1%), MAP2K5 (12%), SLK (18%)”.
